Assay results taken from PubChem BioAssay (NCI).
“And” between values parts separate entries of the source, which are not always exact repeats. Identical values can stand only once.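 96-well plates; 48 h exposure; 5 concentrations. Endpoints by linear interpolation between flanking doses. Not reached: highest tested concentration assigned. GI50 = concentration required for 50% inhibition of growth. TGI denotes the concentration required for complete inhibition of growth.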

system: SF-295 CNS; assay: growth of human tumour cells (NCI), 48 h

| SMILES | GI50 | TGI |
| --- | --- | --- |
| C[C@@H](CS(C)(=O)=O)Nc1ncc2cc(Oc3ccc(F)cc3F)c(=O)n(C)c2n1 | > 25 µM | > 25 µM |
| COc1cc2c(c(OC)c1O)C(=O)C(OC)C(c1ccc(O)c(O)c1)O2 (stereo not drawn) | 0.471 µM | 4.95 µM |
| Cn1ccnc1C(=O)/C=C/c1ccc(CC(=O)Nc2ccc(Br)cc2)cc1 | 3.22 µM | 8.89 µM |
| CCOC(=O)Nc1nc2ccc(OCC)cc2s1 | > 100 µM | > 100 µM |
| NS(=O)(=O)c1ccccc1C(=O)N/N=C(\c1nc2ccc([N+](=O)[O-])cc2[nH]c1=O)C(O)c1ccc([N+](=O)[O-])cc1 (stereo not drawn) | – | > 100 µM |
| N#CC(C#N)=c1ccc(=C2NCC3CCCN23)cc1 (stereo not drawn) | – | > 100 µM |
| CC(C)c1ccc(C(C)C(=O)N(CC2=C(C(C)c3ccccn3)c3ccccc3C2)C(C)C)cc1 (stereo not drawn) | 2.3 µM | 7.65 µM |
| Cc1nc2c(nc1C)C(=O)c1ccccc1C2=O | – | 4.38 µM |
| O=[N+]([O-])c1cnc(Sc2ccncn2)s1 | 18 µM | 41 µM |
| O=C(Nc1ccc(I)cc1)c1cc([N+](=O)[O-])ccc1O | 4.02 µM | 39.8 µM |
| Cc1cc(=O)n2[nH]c(-c3ccc(C(C)(C)C)cc3)cc2n1 | 2.47 µM | 22.7 µM |
| O=C(N/C(=C\c1cc(Cl)ccc1Cl)c1nc2[nH]c(=S)[nH]c(=O)c2[nH]1)c1ccccc1 | – | > 100 µM |
| O=C(CN1CCN(c2cc3c(cc2F)c(=O)c(C(=O)N/N=C/c2ccccc2O)cn3C2CC2)CC1)N/N=C\c1ccccc1O | 0.931 µM | > 100 µM |
| C=C(CNCCO)[C@@H]1CC[C@]2(CO)CC[C@]3(C)[C@H](CC[C@@H]4[C@@]5(C)CCC(N)C(C)(C)[C@@H]5CC[C@]43C)[C@@H]12 (stereo partly drawn) | 1.73 µM | 3.52 µM |
| Nc1cc2nc3ccccc3sc-2cc1=O | 2.44 µM | 7.35 µM |
| CN(CC(=O)O)S(=O)(=O)c1ccc2ccccc2c1 | – | > 100 µM |
| CC1=C(C(=O)Nc2ccccc2C)C(c2ccco2)C(C(=O)Nc2ccccc2C)=C(C)N1C | – | > 100 µM |
| COc1cc2nc(-c3ccc(C(F)(F)F)cc3)cc(OCCCN3CCC(O)CC3)c2cc1OC | 1.61 µM | 3.83 µM |
| CC(=O)OC(C)C(=O)C1c2cccc(O)c2C(=O)c2c(O)cc(C)cc21 (stereo not drawn) | – | 1.19 µM |
| O=C1NNC(=O)c2ccccc2SSc2ccccc2C(=O)NNC(=O)c2ccccc2SSc2ccccc21 | 16.3 µM | 50 µM and > 100 µM |
| NC(CCc1nc(-c2ccc(Cl)cc2)cs1)C(=O)O (stereo not drawn) | – | > 100 µM |
| COc1cc(C(=O)/C=C/c2sc(Cl)nc2Cl)cc(OC)c1OC | 2.09 µM | 4.71 µM |
| COc1cc2nc(C)nc(N[C@H](C)c3cc(N)cc(C(F)(F)F)c3)c2cc1O[C@H]1CCOC1 | 11.6 µM | 24.8 µM |
| O=C1c2ccccc2C(=O)c2sc(Nc3cccc(Cl)c3)nc21 | – | 3.09 µM |
| CC1=C(C(=O)Nc2ccc(F)c(Cl)c2)C(c2ccc(Cl)cc2)NC(=O)N1 (stereo not drawn) | 32.5 µM | > 100 µM |
| Fc1ccc(Nc2ncnc3ccc(-c4cnc5[nH]ccc5c4)cc23)cc1Cl | 2.73 µM | 11.2 µM |
| CN(C)CCCNC1=C(Cl)C(=O)c2ccccc2C1=O | 7.23 µM | 21.4 µM |
| O=C(Nc1ccc(F)cc1F)c1cc(I)ccc1O | 1.95 µM | 3.94 µM |

system: NCI-H522 lung; assay: growth of human tumour cells (NCI), 48 h

| SMILES | GI50 | TGI |
| --- | --- | --- |
| C[C@@H](CS(C)(=O)=O)Nc1ncc2cc(Oc3ccc(F)cc3F)c(=O)n(C)c2n1 | > 25 µM | > 25 µM |
| COc1cc2c(c(OC)c1O)C(=O)C(OC)C(c1ccc(O)c(O)c1)O2 (stereo not drawn) | 0.0599 µM | – |
| Cn1ccnc1C(=O)/C=C/c1ccc(CC(=O)Nc2ccc(Br)cc2)cc1 | 3.83 µM | 8.25 µM |
| CCOC(=O)Nc1nc2ccc(OCC)cc2s1 | 6.49 µM | > 100 µM |
| NS(=O)(=O)c1ccccc1C(=O)N/N=C(\c1nc2ccc([N+](=O)[O-])cc2[nH]c1=O)C(O)c1ccc([N+](=O)[O-])cc1 (stereo not drawn) | – | 59.2 µM |
| N#CC(C#N)=c1ccc(=C2NCC3CCCN23)cc1 (stereo not drawn) | – | > 100 µM |
| CC(C)c1ccc(C(C)C(=O)N(CC2=C(C(C)c3ccccn3)c3ccccc3C2)C(C)C)cc1 (stereo not drawn) | 2.59 µM | 15.7 µM |
